Experimental data: ChEMBL document CHEMBL1201862, “PubChem BioAssay data set” (2004)
Active and inactive are the calls of the source.

Tests used:
Streptococcus = assay: GAS UMAA2166 growth inhibition – luminescence, BacTiterGlo, counter-screen for streptokinase expression inhibitor project, dose response (AID 1915); format: functional, organism-based;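 note: potency for reduction of bacterial viability or growth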
BJ [1] = assay: growth inhibition of engineered Ras-driven BJ cells – cell-based, alamar blue fluorescence, cherrypicked samples, dose response (AID 2631); format: functional; details: Homo sapiens;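 note: confirmatory dose-response assay in RAS-dependent BJ fibroblasts engineered with TERT, LT and ST, with cytotoxicity read by fluorescence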
[2] = test system: Streptococcus sp. 'group A'; assay: Streptococcus pyogenes SK(-)GAS viability under kanamycin – luminescence, BacTiterGlo, confirmation, counter-screen for streptokinase expression inhibitor project, dose response (AID 1900); format: functional, organism-based
Streptokinase A = target: T1, Streptokinase A (Streptococcus pyogenes serotype M1, UniProt P10520); assay: viability-normalized secreted streptokinase activity reduction – plasminogen activation absorbance, OD405, dose response (AID 1914); format: functional, Streptococcus pyogenes M1 GAS;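 note: secreted streptokinase activity via plasminogen activation per viability signal from cell pellet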
T1 sequence (P10520 whole entry): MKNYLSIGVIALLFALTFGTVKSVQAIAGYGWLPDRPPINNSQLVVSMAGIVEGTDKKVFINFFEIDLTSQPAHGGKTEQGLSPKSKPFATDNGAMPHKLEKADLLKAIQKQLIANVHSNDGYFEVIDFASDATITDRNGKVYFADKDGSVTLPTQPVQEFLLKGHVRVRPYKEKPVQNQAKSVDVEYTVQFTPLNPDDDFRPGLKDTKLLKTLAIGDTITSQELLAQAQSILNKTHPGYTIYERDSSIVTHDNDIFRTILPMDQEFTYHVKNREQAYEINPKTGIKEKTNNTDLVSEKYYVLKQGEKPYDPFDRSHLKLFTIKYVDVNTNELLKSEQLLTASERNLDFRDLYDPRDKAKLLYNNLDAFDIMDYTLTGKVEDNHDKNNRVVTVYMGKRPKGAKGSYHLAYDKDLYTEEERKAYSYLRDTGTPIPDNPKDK

Fatty acid synthase [3] = target: T2, Fatty acid synthase (Homo sapiens, UniProt P49327); assay: inhibition of human FAS-TE enzyme activity – biochemical, kinetic fluorescence intensity, dose response (AID 624326); format: functional;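 note: rate of fluorescence rise from hydrolysis of a fluorogenic O-methyl fluorescein ester substrate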
T2 sequence (P49327 whole entry): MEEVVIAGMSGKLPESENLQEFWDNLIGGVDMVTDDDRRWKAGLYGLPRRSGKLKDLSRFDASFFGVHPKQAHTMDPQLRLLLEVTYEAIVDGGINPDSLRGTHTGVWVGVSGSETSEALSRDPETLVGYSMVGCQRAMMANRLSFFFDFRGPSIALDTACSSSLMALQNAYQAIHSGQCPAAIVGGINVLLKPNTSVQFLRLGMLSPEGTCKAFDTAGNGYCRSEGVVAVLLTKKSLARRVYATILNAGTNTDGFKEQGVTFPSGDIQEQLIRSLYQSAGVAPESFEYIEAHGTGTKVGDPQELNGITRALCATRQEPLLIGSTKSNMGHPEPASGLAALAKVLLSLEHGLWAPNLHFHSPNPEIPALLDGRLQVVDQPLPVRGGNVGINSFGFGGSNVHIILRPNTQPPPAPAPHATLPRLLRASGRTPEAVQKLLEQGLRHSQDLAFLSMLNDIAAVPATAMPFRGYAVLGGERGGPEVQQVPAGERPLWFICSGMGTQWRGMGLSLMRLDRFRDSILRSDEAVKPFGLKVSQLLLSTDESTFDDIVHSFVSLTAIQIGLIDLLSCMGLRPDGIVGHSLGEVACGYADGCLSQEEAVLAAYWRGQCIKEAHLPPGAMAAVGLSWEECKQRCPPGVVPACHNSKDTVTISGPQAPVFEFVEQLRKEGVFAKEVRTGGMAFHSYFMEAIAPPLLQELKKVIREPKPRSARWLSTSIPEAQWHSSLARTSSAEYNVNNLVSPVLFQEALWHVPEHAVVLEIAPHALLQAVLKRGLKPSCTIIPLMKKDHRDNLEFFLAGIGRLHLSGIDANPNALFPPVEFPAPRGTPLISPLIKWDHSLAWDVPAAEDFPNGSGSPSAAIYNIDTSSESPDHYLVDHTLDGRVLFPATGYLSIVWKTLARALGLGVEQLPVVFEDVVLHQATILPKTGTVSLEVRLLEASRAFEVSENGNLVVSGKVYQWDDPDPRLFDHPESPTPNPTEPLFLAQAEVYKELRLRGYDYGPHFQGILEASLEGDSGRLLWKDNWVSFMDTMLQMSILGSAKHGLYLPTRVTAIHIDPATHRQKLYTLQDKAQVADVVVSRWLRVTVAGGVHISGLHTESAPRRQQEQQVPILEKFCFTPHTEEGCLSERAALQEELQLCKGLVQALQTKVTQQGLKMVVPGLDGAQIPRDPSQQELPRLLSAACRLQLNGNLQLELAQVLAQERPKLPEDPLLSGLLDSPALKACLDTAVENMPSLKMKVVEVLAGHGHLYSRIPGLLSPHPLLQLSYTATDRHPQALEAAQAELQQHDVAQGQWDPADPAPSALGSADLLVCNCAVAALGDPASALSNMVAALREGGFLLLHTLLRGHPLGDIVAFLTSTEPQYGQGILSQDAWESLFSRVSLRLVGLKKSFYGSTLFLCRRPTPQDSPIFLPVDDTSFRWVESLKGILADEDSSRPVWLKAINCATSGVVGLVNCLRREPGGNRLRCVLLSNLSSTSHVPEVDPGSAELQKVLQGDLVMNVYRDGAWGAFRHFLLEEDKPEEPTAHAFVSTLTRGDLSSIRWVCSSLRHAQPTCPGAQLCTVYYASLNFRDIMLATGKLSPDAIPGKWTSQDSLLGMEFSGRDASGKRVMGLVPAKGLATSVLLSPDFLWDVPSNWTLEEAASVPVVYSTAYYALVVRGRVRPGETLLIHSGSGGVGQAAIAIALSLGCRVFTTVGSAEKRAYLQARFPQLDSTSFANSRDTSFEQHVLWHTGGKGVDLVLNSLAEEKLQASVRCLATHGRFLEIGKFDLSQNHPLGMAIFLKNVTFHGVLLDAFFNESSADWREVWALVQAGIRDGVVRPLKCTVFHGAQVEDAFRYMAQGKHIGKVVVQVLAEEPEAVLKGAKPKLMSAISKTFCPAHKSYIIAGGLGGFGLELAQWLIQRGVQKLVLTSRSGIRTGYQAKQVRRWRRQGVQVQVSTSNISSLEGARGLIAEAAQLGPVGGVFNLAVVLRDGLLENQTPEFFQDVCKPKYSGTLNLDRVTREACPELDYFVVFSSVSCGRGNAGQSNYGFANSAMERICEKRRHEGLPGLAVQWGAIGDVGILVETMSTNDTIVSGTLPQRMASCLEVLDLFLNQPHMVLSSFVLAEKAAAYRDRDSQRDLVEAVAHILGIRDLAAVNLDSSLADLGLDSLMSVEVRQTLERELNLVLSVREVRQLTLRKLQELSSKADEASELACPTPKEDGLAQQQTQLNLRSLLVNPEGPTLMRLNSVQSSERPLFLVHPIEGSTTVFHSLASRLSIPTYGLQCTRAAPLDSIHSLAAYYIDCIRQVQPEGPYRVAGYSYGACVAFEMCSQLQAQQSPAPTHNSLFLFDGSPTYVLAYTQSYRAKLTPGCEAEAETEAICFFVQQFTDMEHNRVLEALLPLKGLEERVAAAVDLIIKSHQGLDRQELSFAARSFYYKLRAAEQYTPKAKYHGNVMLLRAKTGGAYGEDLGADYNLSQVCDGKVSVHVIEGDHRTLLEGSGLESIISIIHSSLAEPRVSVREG

Fatty acid synthase [4] = target: T2, Fatty acid synthase; assay: inhibition of human FAS-TE enzyme activity – biochemical, endpoint fluorescence intensity, uHTS hits, dose response (AID 624327); format: functional;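 note: fluorescence from hydrolysis of an O-methyl fluorescein acyl ester substrate by the enzyme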
[5] = target: T3, Sentrin-specific protease 7 (Homo sapiens, UniProt Q9BQF6); format: functional;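 note: Luminescence-based dose-response confirmation of ultra-high-throughput screening hits, measuring inhibition of SENP7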
T3 sequence (Q9BQF6 whole entry): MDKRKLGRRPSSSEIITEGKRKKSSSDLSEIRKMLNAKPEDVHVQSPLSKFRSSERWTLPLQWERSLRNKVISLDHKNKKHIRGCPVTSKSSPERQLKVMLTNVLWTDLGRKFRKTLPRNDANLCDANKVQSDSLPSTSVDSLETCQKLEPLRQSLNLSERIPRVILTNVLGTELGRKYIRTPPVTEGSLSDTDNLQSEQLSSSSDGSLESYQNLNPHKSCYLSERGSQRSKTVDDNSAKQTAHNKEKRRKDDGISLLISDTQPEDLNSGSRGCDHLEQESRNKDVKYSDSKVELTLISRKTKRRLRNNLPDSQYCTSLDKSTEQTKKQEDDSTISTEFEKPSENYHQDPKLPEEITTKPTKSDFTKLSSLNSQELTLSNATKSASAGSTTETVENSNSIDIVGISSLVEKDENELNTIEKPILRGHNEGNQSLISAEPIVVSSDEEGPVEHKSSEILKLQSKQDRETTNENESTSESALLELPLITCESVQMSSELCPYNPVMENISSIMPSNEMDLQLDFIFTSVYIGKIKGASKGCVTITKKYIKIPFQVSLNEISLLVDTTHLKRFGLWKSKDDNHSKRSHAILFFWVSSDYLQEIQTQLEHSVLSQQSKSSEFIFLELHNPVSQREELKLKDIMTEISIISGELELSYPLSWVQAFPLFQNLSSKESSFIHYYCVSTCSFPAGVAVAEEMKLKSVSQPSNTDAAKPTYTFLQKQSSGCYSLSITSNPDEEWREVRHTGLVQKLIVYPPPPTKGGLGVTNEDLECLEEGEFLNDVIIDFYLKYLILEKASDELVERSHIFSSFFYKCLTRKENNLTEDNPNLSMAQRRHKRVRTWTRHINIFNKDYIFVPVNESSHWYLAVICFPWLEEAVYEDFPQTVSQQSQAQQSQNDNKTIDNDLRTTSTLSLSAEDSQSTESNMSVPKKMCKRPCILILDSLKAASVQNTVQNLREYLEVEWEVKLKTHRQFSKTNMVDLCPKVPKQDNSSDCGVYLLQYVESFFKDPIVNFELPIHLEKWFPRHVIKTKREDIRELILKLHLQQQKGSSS

[6] = target: T4, Sentrin-specific protease 8 (Homo sapiens, UniProt Q96LD8); format: functional;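 note: luminescence read-out of SENP8 inhibition, dose-response confirmation following an ultra-high-throughput screen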
T4 sequence (Q96LD8 whole entry): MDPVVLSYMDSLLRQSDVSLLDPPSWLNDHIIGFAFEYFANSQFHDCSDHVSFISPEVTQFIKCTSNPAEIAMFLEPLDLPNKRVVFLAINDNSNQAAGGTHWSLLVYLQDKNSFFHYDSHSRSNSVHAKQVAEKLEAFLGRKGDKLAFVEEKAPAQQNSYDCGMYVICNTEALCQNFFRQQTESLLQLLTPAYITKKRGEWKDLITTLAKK

Caspase-3 = target: T5, Caspase-3 (Homo sapiens, UniProt P42574); format: functional;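 note: Dose-response selectivity test against caspase-3 for candidate inhibitors of sentrin-specific proteases (SENPs)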
T5 sequence (P42574 whole entry): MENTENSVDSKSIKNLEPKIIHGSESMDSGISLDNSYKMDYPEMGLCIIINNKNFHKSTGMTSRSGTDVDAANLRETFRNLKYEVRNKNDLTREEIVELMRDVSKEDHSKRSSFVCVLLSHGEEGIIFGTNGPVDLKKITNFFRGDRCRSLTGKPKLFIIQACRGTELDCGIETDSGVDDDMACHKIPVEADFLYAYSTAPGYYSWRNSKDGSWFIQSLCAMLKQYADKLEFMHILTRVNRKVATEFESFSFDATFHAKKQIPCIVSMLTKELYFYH

[7] = target: T6, Sentrin-specific protease 6 (Homo sapiens, UniProt Q9GZR1); format: functional;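 note: Luminescence-based dose-response confirmatory assay of SENP6 inhibition, following up an ultra-high-throughput screen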
T6 sequence (Q9GZR1 whole entry): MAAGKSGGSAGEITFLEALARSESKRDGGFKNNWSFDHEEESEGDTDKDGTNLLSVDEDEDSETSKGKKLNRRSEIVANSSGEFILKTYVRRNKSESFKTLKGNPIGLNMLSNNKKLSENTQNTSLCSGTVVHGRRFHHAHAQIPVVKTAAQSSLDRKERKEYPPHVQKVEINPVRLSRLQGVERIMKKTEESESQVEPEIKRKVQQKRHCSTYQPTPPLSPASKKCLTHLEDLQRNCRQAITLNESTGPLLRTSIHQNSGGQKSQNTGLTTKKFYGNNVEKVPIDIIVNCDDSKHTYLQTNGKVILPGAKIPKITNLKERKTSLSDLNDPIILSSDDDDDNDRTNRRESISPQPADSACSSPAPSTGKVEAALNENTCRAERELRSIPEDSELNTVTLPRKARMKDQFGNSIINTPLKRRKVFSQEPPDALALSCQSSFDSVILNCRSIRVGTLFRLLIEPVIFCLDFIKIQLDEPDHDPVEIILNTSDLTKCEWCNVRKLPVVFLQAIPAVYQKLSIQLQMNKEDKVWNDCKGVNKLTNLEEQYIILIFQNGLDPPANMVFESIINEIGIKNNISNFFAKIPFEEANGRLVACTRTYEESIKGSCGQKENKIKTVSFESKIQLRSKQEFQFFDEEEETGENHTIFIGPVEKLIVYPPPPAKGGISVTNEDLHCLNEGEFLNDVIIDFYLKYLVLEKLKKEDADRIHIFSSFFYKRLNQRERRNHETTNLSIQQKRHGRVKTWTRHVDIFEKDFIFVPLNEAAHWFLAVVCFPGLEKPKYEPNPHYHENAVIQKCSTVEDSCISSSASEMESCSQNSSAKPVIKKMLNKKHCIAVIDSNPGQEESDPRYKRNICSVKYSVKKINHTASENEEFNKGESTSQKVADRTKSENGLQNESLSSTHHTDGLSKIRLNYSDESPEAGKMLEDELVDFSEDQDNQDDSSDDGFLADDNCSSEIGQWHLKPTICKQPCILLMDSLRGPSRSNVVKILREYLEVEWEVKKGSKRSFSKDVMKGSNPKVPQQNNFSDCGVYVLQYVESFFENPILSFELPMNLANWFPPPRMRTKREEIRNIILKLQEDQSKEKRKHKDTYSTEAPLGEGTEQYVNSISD

Prothrombin = Prothrombin (Homo sapiens, UniProt P00734); assay: Thrombin 1536 HTS Dose Response Confirmation. [Related pubchem assays: 1046 (Thrombin 1536 HTS; hits were confirmed in this assay)]; format: functional
BJ [8] = assay: BJ-TERT fibroblast viability loss – cell-based, RAS-independent, luminescence, dose response (AID 1933); format: functional; details: Homo sapiens
[9] = DRD fibroblast viability loss – cell-based, non-viral oncogenic, luminescence, dose response (AID 1934); format: functional; details: Homo sapiens
BJ [10] = assay: BJ-TERT-LT-ST fibroblast viability loss – cell-based, RAS-independent, luminescence, dose response (AID 1935); format: functional; details: Homo sapiens;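 note: BJ fibroblasts immortalized with TERT plus LT and ST oncogenes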
BJ [11] = assay: cells; format: functional, cell-based; details: Homo sapiens
Caspase-6 = target: T7, Caspase-6 (Homo sapiens, UniProt P55212); assay: inhibition of CASP6 peptide cleavage – biochemical, VEID-R110 fluorescence, cherry-pick, dose response (AID 720632)
T7 sequence (P55212 whole entry): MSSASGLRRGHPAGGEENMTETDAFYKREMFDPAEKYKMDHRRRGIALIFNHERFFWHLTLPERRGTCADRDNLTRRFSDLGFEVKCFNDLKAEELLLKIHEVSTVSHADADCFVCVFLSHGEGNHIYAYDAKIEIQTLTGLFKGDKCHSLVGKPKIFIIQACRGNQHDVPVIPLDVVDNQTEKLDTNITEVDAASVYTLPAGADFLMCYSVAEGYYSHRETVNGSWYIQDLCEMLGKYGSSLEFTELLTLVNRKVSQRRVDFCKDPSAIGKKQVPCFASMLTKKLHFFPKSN

O=C(c1ccc2c3n(nc2c1)-c1ccccc1CO3)N1CCCCC1
EC50 (Streptococcus): 30.6 µM (active) | EC50 (BJ [1]): > 133 µM (inactive) | EC50 [2]: 11.9 µM (active) | EC50 (Streptokinase A): > 150 µM (not active)

Cc1ccc([N+](=O)[O-])cc1S(=O)(=O)Nc1ccc(-c2ccc(N3CCCC3)nn2)cc1
IC50 (Fatty acid synthase [3]): 8.02 µM (active) | IC50 (Fatty acid synthase [4]): 13.7 µM (active)

CCOC(=O)c1c(NC(=O)CSc2nnc(-c3ccccc3C)n2C)sc(C(C)=O)c1C
IC50 (Fatty acid synthase [3]): 3.03 µM (active) | IC50 (Fatty acid synthase [4]): 9.71 µM (active)

CCOC(=O)c1ccc(-c2ccc3c(c2)CCC3)nc1C
IC50 [5]: 6.3 µM (active) | IC50 [6]: 45.2 µM (active) | IC50 (Caspase-3): 22.8 µM (active) | IC50 [7]: 26.3 µM (active)

CCC(=O)n1nc(-c2ccco2)nc1SCc1ccccc1
IC50 (Prothrombin): 0.00342 µM (active)

COc1ccccc1NC(=O)CCS(=O)(=O)c1ccccc1
IC50 (Prothrombin): > 50 µM (not active)

O=C(CCCCCCCCCCC(=O)NCc1cccnc1)NCc1cccnc1
EC50 (BJ [8]): > 75 µM (not active) | EC50 (BJ [1]): > 133 µM (inactive) | EC50 [9]: > 150 µM (not active) | EC50 (BJ [10]): > 150 µM (inconclusive) | EC50 (BJ [11]): 1.85 µM (inconclusive)

CC(Sc1nnc(-c2cc3ccccc3o2)n1-c1ccccc1)C(=O)O (stereo not drawn)
IC50 (Prothrombin): > 50 µM (not active)

O=C(Nc1nnc(C(F)(F)F)s1)c1ccc(Br)s1
IC50 [5]: 15.5 µM (active) | IC50 [6]: 24.1 µM (active) | IC50 (Caspase-3): 18.8 µM (active) | IC50 [7]: 22.6 µM (active)

COc1cc(CNc2nc(C)c([N+](=O)[O-])c(C)c2C#N)cc(OC)c1OC
IC50 (Fatty acid synthase [3]): 80 µM (inactive) | IC50 (Fatty acid synthase [4]): 61.3 µM (inactive)

CC1CCc2c(sc3nc(CN4CCN(S(=O)(=O)c5ccccc5[N+](=O)[O-])CC4)nc(O)c23)C1 (stereo not drawn)
IC50 (Fatty acid synthase [3]): 4.55 µM (active) | IC50 (Fatty acid synthase [4]): 4.32 µM (active)

O=C(NNC(=O)C(c1ccccc1)c1ccccc1)c1cccs1
IC50 (Prothrombin): > 50 µM (not active)

CCC12CCCN3CCc4c(n(c5ccccc45)C(O)(C(=O)OC)C1)C32 (stereo not drawn)
AC50 (Caspase-6): 21.7 µM (active)

Cc1ccc(C(=O)Nc2ccc3c(c2)OCO3)cc1Cl
IC50 [5]: 5.94 µM (active) | IC50 [6]: > 100 µM (inactive) | IC50 (Caspase-3): 13.4 µM (active) | IC50 [7]: > 100 µM (inactive)

CC(C)(C)NC(=O)NC(=O)COC(=O)C1CCN(S(=O)(=O)c2cccs2)CC1
IC50 (Fatty acid synthase [3]): 9.75 µM (active) | IC50 (Fatty acid synthase [4]): 12.8 µM (active)

CCOc1ccc(/C=C2\CCc3ccccc3C2=O)cc1
IC50 [5]: 1.22 µM (active) | IC50 [6]: 1.88 µM (active) | IC50 (Caspase-3): 1.5 µM (active) | IC50 [7]: 1.42 µM (active)

Cc1ccccc1CN1[C@@H](C)[C@H](c2ccccc2)Oc2cccc(NCC(C)C)c2S1(=O)=O
AC50 (Caspase-6): 23.3 µM (active)

Cc1ccccc1S(=O)(=O)N1[C@@H]2CNC[C@H]1[C@@H]2c1ccc(-c2ccc(C#N)cc2)cc1
AC50 (Caspase-6): 30.9 µM (active)

O=C(CCC(=O)Nc1ccc(F)cc1)N/N=C/c1cc([N+](=O)[O-])ccc1O
IC50 (Fatty acid synthase [3]): 15.1 µM (active) | IC50 (Fatty acid synthase [4]): 22.6 µM (inactive)

CC(C)Oc1ccc2c(=O)c(-c3ccccc3)coc2c1 [IPRIFLAVONE]
IC50 [5]: 5.35 µM (active) | IC50 [6]: 94.8 µM (active) | IC50 (Caspase-3): 19.7 µM (active) | IC50 [7]: 57.2 µM (active)
